Laboratory results as given in US20050153985A1, “Methods of treating acute inflammation in animals with p38 map kinase inhibitors” (priority 2003, published 2005).
“Also recorded” adds a separate entry of the source.

Test system: E. coli (MacDonald 487) induced mastitis
Assay: E. coli induced mastitis in lactating cows, treatment 13 hours after intramammary challenge
Assay type: in vivo, lactating Holstein cows
Details: 10 mg/kg IV; for mean E. coli colony counts in milk after treatment: 11-168 hours, FIG. 10; for mean E. coli colony counts in milk after treatment / milk somatic cell count (SCC) / mean whey PGE2 levels after treatment: compared to infected; for mean E. coli colony counts in milk after treatment / milk clinical scores / gland clinical scores: non-medicated controls; for whey PGE2 levels at 11 hours after treatment: relative to level at time 0; for milk produced during the 13 days after treatment: based on mean daily milk production values from FIG. 2, infected, non-medicated cow 365 lbs; for milk production loss associated with mastitis following treatment: compared to infected cows treated with vehicle, FIG. 2; for milk somatic cell count (SCC) / mean whey PGE2 levels after treatment: non-medicated control cows; for milk somatic cell count (SCC): FIG. 6; for mean whey PGE2 levels after treatment: FIG. 9; for milk produced during the 13 days after treatment compared with infected, non-medicated cow: comparison in words; for milk clinical scores / gland clinical scores: vs infected; for milk clinical scores: FIG. 3; for gland clinical scores: FIG. 4; for cumulative clinical scores: compared to controls, FIG. 5; for total WBC numbers (peripheral blood) / total PMN numbers (peripheral blood): data analyzed for 0-72 hours, vs controls; for total WBC numbers (peripheral blood): FIG. 7; for total PMN numbers (peripheral blood): FIG. 8
Text: Thirty-three lactating Holstein cows were randomly allotted to 5 treatment groups blocked by milk production and days in milk. Milk and blood samples and temperature data were collected at the morning milking on day −1. One normal quarter was selected from each cow based on clinical scores and California Mastitis Test (CMT) results performed at morning milking on day −1. After the evening milking on […], selected quarters were infused with approximately 30 cfu of E. coli (MacDonald 487). Milk and blood samples and temperature data were collected prior to treatment at the morning milking on day 0. Cows were treated after the morning milking on day 0 according to the study design. After treatment, milk and blood samples and temperature data were collected at 11, 24, 35, 48, 72, 144, 168, 192, and 216 hours. Clinical scores of infused quarters and milk production were assessed at each milking. Milk samples were analyzed for culture (E. coli), SCC, TNF-α and PGE2 and blood leukograms were determined. [table] Assessment of test article efficacy was determined based upon a comparison of the treatment effect on each variable versus the challenged, non-medicated group. Data were analyzed using the MIXED procedure of PC-SAS version 6.12. The model included treatment, time and their interaction. Covariance within cows across time was modeled using the Repeated statement analysis with a […] covariance structure to account for unequally spaced sampling times. Tests for significance (P≦0.10) were based upon the main treatment effect compared with the challenged, non-medicated group. The P value of ≦0.10 was selected based on the number of animals per treatment group and the conservative nature of the SAS procedure. […] In all, 27 of 27 quarters challenged developed clinical mastitis.

Row | SMILES | mean E. coli colony counts in milk after treatment | whey PGE2 levels at 11 hours after treatment | milk produced during the 13 days after treatment [lbs] | milk production loss associated with mastitis following treatment | milk somatic cell count (SCC) | mean whey PGE2 levels after treatment | milk produced during the 13 days after treatment compared with infected, non-medicated cow | milk clinical scores | gland clinical scores | cumulative clinical scores | total WBC numbers (peripheral blood) | total PMN numbers (peripheral blood)
1 | CC(=O)Nc1nc(-c2cccc(C)c2)c(-c2ccc3c(c2)n(C)c(=O)n3CC(C)C)[nH]1 [MAPKi #3] | did not show a decline | continue to rise | 366 | no trend for improved | trend towards lower SCC | significant reduction; also recorded: significantly reduced | produced the same amount of milk as infected, non-medicated control cows | no trend for improved | Significantly improved |  |  | 
2 | CC(C)n1c(=O)n(C)c2cc(-c3[nH]c(-c4cnccn4)nc3-c3ccc(F)cc3)ccc21 [MAPKi #2] | decline in milk E. coli numbers compared to controls but the difference was not significant; also recorded: reduced | remained at the same level | 689 |  |  | significant reduction | produced more milk than control cows | significantly improved; also recorded: Significant reductions | Significantly improved; also recorded: Significant reductions | significantly lower; also recorded: Significant reductions | returned to pre-challenge levels significantly faster | returned to pre-challenge levels significantly faster
3 | Nc1nccc(-c2c(-c3ccc(F)cc3)ncn2C2CCNCC2)n1 [MAPKi #1] | significantly decreased; also recorded: Significant improvement | decline | 847 | significantly less milk production loss; also recorded: Significant improvement | trend towards lower SCC | significant reduction; also recorded: Significant improvement | more than twice as much milk | significantly improved; also recorded: Significant improvement | Significantly improved; also recorded: Significant improvement | significantly lower; also recorded: Significant improvement | returned to pre-challenge levels significantly faster; also recorded: Significant improvement | returned to pre-challenge levels significantly faster
